Assay results as given in ChEMBL document CHEMBL1201862, “PubChem BioAssay data set” (2004).
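48-hour exposure; five concentrations; linearly interpolated endpoints. The concentration for 50% growth inhibition is given as GI50.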 The source made the active and inactive calls. No stated cut-off is given here; in the data, active = GI50 up to about 1.1 µM and inactive = higher. Non-standard residues stand in square brackets, D forms with d. Residues, ends and D or L forms follow the SMILES beside them. ΔPro = O=C(O)[CH]1C=CCN1

What was measured:
Assay in all cases: inhibition of tumour cell growth, NCI panel, 48 h
A549 = test system: A549
ACHN = test system: ACHN
BT-549 = test system: BT-549
CAKI-1 = test system: CAKI-1
HCT-15 = test system: HCT-15
Hs-578T = test system: Hs-578T
K562 = test system: K562
KM12 = test system: KM12
LOX IMVI = test system: LOX IMVI
MDA-MB-435 = test system: MDA-MB-435
NCI-H226 = test system: NCI-H226
NCI-H522 = test system: NCI-H522
OVCAR-5 = test system: OVCAR-5
RXF 393 = test system: RXF 393
SF-268 = test system: SF-268
SK-MEL-2 = test system: SK-MEL-2
SK-OV-3 = test system: SK-OV-3
T47D = test system: T47D
UACC-62 = test system: UACC-62

| SMILES | GI50 (A549) | GI50 (ACHN) | GI50 (BT-549) | GI50 (CAKI-1) | GI50 (HCT-15) [µM] | GI50 (Hs-578T) | GI50 (K562) | GI50 (KM12) | GI50 (LOX IMVI) | GI50 (MDA-MB-435) | GI50 (NCI-H226) | GI50 (NCI-H522) | GI50 (OVCAR-5) | GI50 (RXF 393) | GI50 (SF-268) | GI50 (SK-MEL-2) | GI50 (SK-OV-3) | GI50 (T47D) | GI50 (UACC-62) |
| --- | --- | --- | --- | --- | --- | --- | --- | --- | --- | --- | --- | --- | --- | --- | --- | --- | --- | --- | --- |
| CC(=O)O[C@@H]1[C@H](C(C)C)[C@@H](OC(C)=O)C/C(C)=C/CC[C@]2(C)O[C@@H]12 | > 100 µM (inactive) | > 100 µM (inactive) | > 100 µM (inactive) | > 100 µM (inactive) | > 100 | > 100 µM (inactive) | > 100 µM (inactive) | > 100 µM (inactive) | > 100 µM (inactive) | > 100 µM (inactive) | > 100 µM (inactive) | > 100 µM (inactive) | > 100 µM (inactive) | > 100 µM (inactive) | > 100 µM (inactive) | > 100 µM (inactive) | > 100 µM (inactive) | > 100 µM (inactive) | > 100 µM (inactive) |
| Cc1cc2c(cc1Cl)SC(NNC(=O)c1ccccc1)=NS2(=O)=O | > 10 µM (inactive) | > 10 µM (inactive) | > 10 µM (inactive) | > 10 µM (inactive) | > 10 | > 10 µM (inactive) | > 10 µM (inactive) | > 10 µM (inactive) | > 10 µM (inactive) | > 10 µM (inactive) | > 10 µM (inactive) | > 10 µM (inactive) | > 10 µM (inactive) | > 10 µM (inactive) | > 10 µM (inactive) | > 10 µM (inactive) | > 10 µM (inactive) | > 10 µM (inactive) | > 10 µM (inactive) |
| O=C(CCCCCCC(=O)Nc1cccnc1)NO [PYROXAMIDE] | 21.7 µM (inactive) | 15.7 µM (inactive) | > 100 µM (inactive) | 16.6 µM (inactive) | 34.4 | 5.15 µM (inactive) | 4.26 µM (inactive) | 2.93 µM (inactive) | 7.29 µM (inactive) | 2.79 µM (inactive) | 36.3 µM (inactive) | 1.26 µM (inactive) | 4.14 µM (inactive) | 5.89 µM (inactive) | 4.26 µM (inactive) | 2.72 µM (inactive) | 5.19 µM (inactive) | 1.47 µM (inactive) | 3.34 µM (inactive) |
| C=CCN(C(=O)CNC(=O)C(F)(F)F)c1cc(OCc2ccccc2)c2c(c1)c(C)cn2S(=O)(=O)c1ccccc1 | 7.5 µM (inactive) | > 26 µM (inactive) | > 100 µM (inactive) | > 31 µM (inactive) | > 100 | > 100 µM (inactive) | > 23.9 µM (inactive) | 17.6 µM (inactive) | 16 µM (inactive) | 40.6 µM (inactive) | > 34.8 µM (inactive) | 6.19 µM (inactive) | > 100 µM (inactive) | 5.51 µM (inactive) | 6.59 µM (inactive) | > 28.5 µM (inactive) | > 100 µM (inactive) | 5.93 µM (inactive) | 6.76 µM (inactive) |
| O=C(COC(c1ccc(F)cc1)c1ccc(F)cc1)N1CCN(CCCc2ccccc2)CC1 | 3.93 µM (inactive) | 3.52 µM (inactive) | 3.02 µM (inactive) | 2.05 µM (inactive) | 3.75 | 11.1 µM (inactive) | 3.88 µM (inactive) | 4.06 µM (inactive) | 4.91 µM (inactive) | 3.67 µM (inactive) | 3.01 µM (inactive) | 4.4 µM (inactive) | 4.15 µM (inactive) | 3.22 µM (inactive) | 3.88 µM (inactive) | 3.87 µM (inactive) | 6.97 µM (inactive) | 3.3 µM (inactive) | 4.26 µM (inactive) |
| COc1ccc2cc(/C=N\NC(=O)Nc3ccc([N+](=O)[O-])cc3)ccc2c1 | 11.2 µM (inactive) | 13.9 µM (inactive) | 12.7 µM (inactive) | 13.5 µM (inactive) | 15.1 | 17.5 µM (inactive) | 14.8 µM (inactive) | 11.3 µM (inactive) | 12 µM (inactive) | 14.1 µM (inactive) | > 10 µM (inactive) | 13.5 µM (inactive) | 18.5 µM (inactive) | 11.2 µM (inactive) | 12.8 µM (inactive) | 13.3 µM (inactive) | 11.9 µM (inactive) | 14.2 µM (inactive) | 13.8 µM (inactive) |
| O=C1NC(=O)C2(CCC(O)C2)c2cc[n+]([O-])cc21 (stereo not given) | > 100 µM (inactive) | > 100 µM (inactive) | > 100 µM (inactive) | > 100 µM (inactive) | > 100 | > 100 µM (inactive) | > 100 µM (inactive) | > 100 µM (inactive) | > 100 µM (inactive) | > 100 µM (inactive) | > 100 µM (inactive) | > 100 µM (inactive) | > 100 µM (inactive) | > 100 µM (inactive) | > 100 µM (inactive) | > 100 µM (inactive) | > 100 µM (inactive) | > 100 µM (inactive) | > 100 µM (inactive) |
| COC(=O)NC(Nc1ccc(Cl)cc1Cl)(C(F)(F)F)C(F)(F)F | 38.4 µM (inactive) | 10.5 µM (inactive) | 17.1 µM (inactive) | 24.5 µM (inactive) | 4.38 | > 100 µM (inactive) | 2.85 µM (inactive) | 14 µM (inactive) | 40.6 µM (inactive) | 25.1 µM (inactive) | > 100 µM (inactive) | 37.1 µM (inactive) | > 100 µM (inactive) | > 100 µM (inactive) | 60.4 µM (inactive) | > 100 µM (inactive) | 73.6 µM (inactive) | 47 µM (inactive) | 5.2 µM (inactive) |
| O=C(O)C1C=CCN1C(=O)C1C=CCN1C(=O)C1C=CCN1 (stereo not given) (H-[ΔPro]-[ΔPro]-[ΔPro]-OH; configuration not given here) | > 100 µM (inactive) | > 100 µM (inactive) | > 100 µM (inactive) | > 100 µM (inactive) | > 100 | > 100 µM (inactive) | > 100 µM (inactive) | > 100 µM (inactive) | > 100 µM (inactive) | > 100 µM (inactive) | 33.5 µM (inactive) | > 100 µM (inactive) | > 100 µM (inactive) | 4.21 µM (inactive) | > 100 µM (inactive) | > 100 µM (inactive) | > 100 µM (inactive) | > 100 µM (inactive) | > 100 µM (inactive) |
| O=C(O)[C@@H]1C[C@@H](O)CN1C(=O)OCc1ccccc1 | > 100 µM (inactive) | > 100 µM (inactive) | > 100 µM (inactive) | > 100 µM (inactive) | > 100 | > 100 µM (inactive) | > 100 µM (inactive) | > 100 µM (inactive) | > 100 µM (inactive) | > 100 µM (inactive) | > 100 µM (inactive) | > 100 µM (inactive) | > 100 µM (inactive) | > 100 µM (inactive) | > 100 µM (inactive) | > 100 µM (inactive) | > 100 µM (inactive) | > 100 µM (inactive) | > 100 µM (inactive) |
| COc1ccc(C(=C(Cl)c2ccccc2)c2ccc(OC)cc2)cc1 | > 100 µM (inactive) | > 100 µM (inactive) | > 100 µM (inactive) | > 100 µM (inactive) | > 100 | > 100 µM (inactive) | > 100 µM (inactive) | > 100 µM (inactive) | > 100 µM (inactive) | > 100 µM (inactive) | > 100 µM (inactive) | 84.3 µM (inactive) | > 100 µM (inactive) | > 100 µM (inactive) | > 100 µM (inactive) | > 100 µM (inactive) | > 100 µM (inactive) | 16.1 µM (inactive) | > 100 µM (inactive) |
| O=C1C(Cl)=C(N2CCC[C@@H]2CO)C(=O)c2c(O)ccc(O)c21 | 2.08 µM (inactive) | 1.6 µM (inactive) | 1.9 µM (inactive) | 1.58 µM (inactive) | 1.87 | 2.06 µM (inactive) | 0.347 µM (active) | 1.75 µM (inactive) | 1.47 µM (inactive) | 1.51 µM (inactive) | 1.71 µM (inactive) | 1.12 µM (active) | 1.69 µM (inactive) | 1.6 µM (inactive) | 1.29 µM (inactive) | 1.57 µM (inactive) | 2.9 µM (inactive) | 1.78 µM (inactive) | 1.36 µM (inactive) |
| Cc1ccc(C(=N)c2ccccc2Cc2cccc3ccccc23)c2ccccc12 | 54.3 µM (inactive) | > 100 µM (inactive) | > 100 µM (inactive) | > 100 µM (inactive) | 40.6 | > 100 µM (inactive) | 80 µM (inactive) | > 100 µM (inactive) | 80.2 µM (inactive) | > 100 µM (inactive) | > 100 µM (inactive) | 56.5 µM (inactive) | > 100 µM (inactive) | > 100 µM (inactive) | > 100 µM (inactive) | > 100 µM (inactive) | > 100 µM (inactive) | 65.3 µM (inactive) | 99.1 µM (inactive) |
| Cc1ccc(N)cc1.O=S(=O)(O)/C(=C\c1ccccc1)c1ccccc1 | > 100 µM (inactive) | > 100 µM (inactive) | > 100 µM (inactive) | > 100 µM (inactive) | > 100 | > 100 µM (inactive) | > 100 µM (inactive) | 71.8 µM (inactive) | > 100 µM (inactive) | > 100 µM (inactive) | > 100 µM (inactive) | > 100 µM (inactive) | > 100 µM (inactive) | > 100 µM (inactive) | > 100 µM (inactive) | > 100 µM (inactive) | > 100 µM (inactive) | > 100 µM (inactive) | 44 µM (inactive) |
| Cc1cc(-c2nc3cc(F)ccc3s2)ccc1NC(=O)C(C)N (stereo not given) | 3.77 µM (inactive) | 3.73 µM (inactive) | 4.24 µM (inactive) | 3.28 µM (inactive) | 2.65 | 4.95 µM (inactive) | 5.62 µM (inactive) | 3.94 µM (inactive) | 4.42 µM (inactive) | 4.81 µM (inactive) | > 25 µM (inactive) | 4.09 µM (inactive) | 1 µM (active) | 3.75 µM (inactive) | 4.53 µM (inactive) | 4.11 µM (inactive) | 4.1 µM (inactive) | 0.0847 µM (active) | 4.02 µM (inactive) |
